The record followed here is patent publication US20260077055A1, “COMPOSITIONS OF POLYPLEXES AND SAPONINS” (SAPREME TECHNOLOGIES B.V., priority 2022, published 2026).

For this experiment, the system named is EGFR-A2058 cells. Briefly: Cell viability (MTS) after polyplex transfection of A2058 cells. In kind it is cell-based. Particulars: co-administered with PAMAM G5(PEG-N3)6.2 npSaporin polyplexes; 73 nM Cetuximab-SO1861 or 4 μM SO1861-EMCH; 72 h. How it is done:
Spectrophotometry: Concentrations were determined using either a Thermo Nanodrop 2000 spectrometer or Perkin Elmer Lambda 365 Spectrophotometer. DLS measurements: DLS measurements were performed on a Malvern Nano ZS (Malvern Instruments, U.K.), operating at 633 nm with a 173° scattering angle, at 25 or 37° C. DLS mean diameters were obtained from the intensity particle size distribution provided by Malvern Zetasizer Software. DLS histograms were obtained from the intensity particle size distributions. […] Infrared Spectroscopy: FT-IR spectra were recorded on a Bruker Vertex 70v, equipped with a RockSolid interferometer, after preparing the samples (1-2 mg) as KBr pellets. […] NMR Spectroscopy: 1H NMR spectra were recorded on a 11.7 T Bruker DRX-500 spectrometer. […] Experiments were recorded acquiring 64-512 scans, with a pre-scan delay (d1) of 12 s, and an acquisition time (aq) of 4 s at 300 K. 13C NMR spectrum was recorder on a 9.39 T Varian Innova 400 spectrometer. […] After treatment, the cells were incubated for 72 hr at 37° C. before the cell viability was determined by a MTS-assay performed according to the manufacturer's instruction (CellTiter 96® AQueous One Solution Cell Proliferation Assay, Promega). […]

Regarding `CC(=O)OC1C(C)OC(OC2C(C)OC(OC(=O)[C@]34CCC(C)(C)CC3C3=CCC5[C@@]6(C)CC[C@H](OC7OC(C(=O)O)C(O)C(OC8OCC(O)C(O)C8O)C7OC7OC(CO)C(O)C(O)C7O)[C@@](C)(/C=N/NC(=O)CCCCCN7C(=O)C=CC7=O)C6CC[C@@]5(C)[C@]3(C)C[C@H]4O)C(OC3OC(C)C(OC4OCC(O)C(OC5OC(CO)C(O)C(O)C5O)C4O)C(O)C3O)C2O)C(O)C1OC1OCC(O)C(O)C1O` (stereo partly shown) [SO1861-EMCH], the “cytoplasmic delivery of npSaporin / cell killing” value is on record as “strongly enhanced the cytoplasmic delivery of npSaporin”.
